# Reference: ChEMBL document CHEMBL4219073, “Development of selective inhibitors for the treatment of rheumatoid arthritis: (R)-3-(3-(Methyl(7H-pyrrolo[2,3-d]pyrimidin-4-yl)amino)pyrrolidin-1-yl)-3-oxopropanenitrile as a JAK1-selective inhibitor” (Bioorg Med Chem, 2018)
# Key:
# [1] = target: T1, Tyrosine-protein kinase JAK2 (Homo sapiens, UniProt O60674); assay type: ADME
# Description: Inhibition of recombinant human JAK2 (808-end residues) in presence of ATP
# [2] = target: Tyrosine-protein kinase JAK1 (Homo sapiens, UniProt P23458)
# Description: Inhibition of recombinant human JAK1 (866-end residues) in presence of ATP
# [3] = in vitro; settings: dog, microsomes
# Description: Metabolic stability in dog liver microsomes assessed as parent compound remaining after 30 mins
# [4] = in vitro; settings: human, microsomes
# Description: Metabolic stability in human liver microsomes assessed as parent compound remaining after 30 mins
# [5] = in vitro; settings: mouse, microsomes
# Description: Metabolic stability in mouse liver microsomes assessed as parent compound remaining after 30 mins
# [6] = in vitro; settings: rat, microsomes
# Description: Metabolic stability in rat liver microsomes assessed as parent compound remaining after 30 mins
# [7] = in vitro; settings: rat, plasma
# Description: Metabolic stability in rat plasma assessed as parent compound remaining after 120 mins
# [8] = target: T2, CYP1A2 (Homo sapiens, UniProt P05177); test: in vitro
# T2 sequence (P05177 whole entry): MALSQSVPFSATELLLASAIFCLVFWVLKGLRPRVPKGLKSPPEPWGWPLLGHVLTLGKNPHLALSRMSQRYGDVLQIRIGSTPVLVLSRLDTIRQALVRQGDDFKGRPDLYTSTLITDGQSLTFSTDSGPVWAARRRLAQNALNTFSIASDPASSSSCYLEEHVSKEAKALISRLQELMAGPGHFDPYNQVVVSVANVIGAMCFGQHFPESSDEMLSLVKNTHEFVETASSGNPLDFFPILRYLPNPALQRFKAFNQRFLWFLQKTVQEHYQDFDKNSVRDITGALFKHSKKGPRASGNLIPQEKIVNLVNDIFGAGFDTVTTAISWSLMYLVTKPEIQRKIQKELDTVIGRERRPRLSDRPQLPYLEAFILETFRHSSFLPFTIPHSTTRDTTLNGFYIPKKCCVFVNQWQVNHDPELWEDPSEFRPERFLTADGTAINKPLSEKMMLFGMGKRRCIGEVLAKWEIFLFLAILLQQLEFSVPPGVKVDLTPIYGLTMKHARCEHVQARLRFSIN
# Description: Inhibition of CYP1A2 (unknown origin) assessed as residual activity at 10 uM relative to control
# [9] = in vivo; settings: beagle, dog, po, 5 mg/kg
# Description: Cmax in Beagle dog at 5 mg/kg, po by LC-MS/MS analysis
# [10] = target: CYP2D6 (Homo sapiens, UniProt P10635); test: in vitro
# Description: Inhibition of CYP2D6 (unknown origin) assessed as residual activity at 10 uM relative to control
# [11] = in vivo; settings: Sprague-Dawley, rat, po, 10 mg/kg
# Description: MRT in Sprague-Dawley rat at 10 mg/kg, po by LC-MS/MS analysis
# [12] = in vivo; settings: beagle, dog, iv, 3 mg/kg
# [13] = in vivo; settings: ICR, mouse, po, 10 mg/kg
# [14] = target: CYP2C19 (Homo sapiens, UniProt P33261); test: in vitro
# Description: Inhibition of CYP2C19 (unknown origin) assessed as residual activity at 10 uM relative to control
# [15] = target: Voltage-gated inwardly rectifying potassium channel KCNH2 (Homo sapiens, UniProt Q12809)
# Description: Inhibition of human ERG expressed in HEK293 cells by automated patch clamp method
# [16] = in vivo; settings: beagle, dog, po, 5 mg/kg; remark: listed apart in the source
# Description: Tmax in Beagle dog at 5 mg/kg, po by LC-MS/MS analysis
# [17] = target: T1, Tyrosine-protein kinase JAK2; settings: read-out: INH
# Description: Inhibition of recombinant human JAK2 (808-end residues) at 10 uM in presence of ATP relative to control
# [18] = in vitro; settings: human, Caco-2
# [19] = in vivo; settings: beagle, dog, po, 5 mg/kg; remark: listed apart in the source
# Description: AUC (0 to infinity) in Beagle dog at 5 mg/kg, po by LC-MS/MS analysis
# [20] = in vivo; settings: ICR, mouse, iv, 5 mg/kg
# Description: AUC (0 to infinity) in ICR mouse at 5 mg/kg, iv by LC-MS/MS analysis
# [21] = in vivo; settings: ICR, mouse, po, 10 mg/kg; remark: listed apart in the source
# Description: Half life in ICR mouse at 10 mg/kg, po by LC-MS/MS analysis
# [22] = in vivo; settings: Sprague-Dawley, rat, po, 10 mg/kg; remark: listed apart in the source
# [23] = organism: Canis familiaris; settings: dog, in vivo, po, 5 mg/kg
# Description: Oral bioavailability in Beagle dog at 5 mg/kg by LC-MS/MS analysis
# [24] = in vivo; settings: Sprague-Dawley, rat, iv, 5 mg/kg
# Description: AUC (0 to infinity) in Sprague-Dawley rat at 5 mg/kg, iv by LC-MS/MS analysis
# [25] = target: CYP3A4 (Homo sapiens, UniProt P08684); test: in vitro
# Description: Inhibition of CYP3A4 (unknown origin) assessed as residual activity at 10 uM relative to control
# [26] = in vivo; settings: beagle, dog, iv, 3 mg/kg; remark: listed apart in the source
# [27] = in vivo; settings: ICR, mouse, iv, 5 mg/kg; remark: listed apart in the source
# Description: Half life in ICR mouse at 5 mg/kg, iv by LC-MS/MS analysis
# [28] = in vivo; settings: Sprague-Dawley, rat, po, 10 mg/kg; remark: listed apart in the source
# [29] = in vitro; settings: human, plasma
# Description: Protein binding in human plasma
# [30] = in vivo; settings: Sprague-Dawley, rat, iv, 5 mg/kg; remark: listed apart in the source
# Description: AUC (0 to t) in Sprague-Dawley rat at 5 mg/kg, iv by LC-MS/MS analysis
# [31] = in vitro; settings: rat, plasma; remark: listed apart in the source
# Description: Metabolic stability in rat plasma assessed as parent compound remaining after 30 mins
# [32] = in vitro; settings: rat, plasma; remark: listed apart in the source
# Description: Protein binding in rat plasma
# [33] = in vivo; settings: beagle, dog, iv, 3 mg/kg; remark: listed apart in the source
# Description: Half life in Beagle dog at 3 mg/kg, iv by LC-MS/MS analysis
# [34] = in vitro; settings: human, plasma; remark: listed apart in the source
# Description: Metabolic stability in human plasma assessed as parent compound remaining after 30 mins
# [35] = in vivo; settings: Sprague-Dawley, rat, iv, 5 mg/kg; remark: listed apart in the source
# Description: Half life in Sprague-Dawley rat at 5 mg/kg, iv by LC-MS/MS analysis
# [36] = in vivo; settings: ICR, mouse, po, 10 mg/kg; remark: listed apart in the source
# [37] = in vivo; settings: ICR, mouse, po, 10 mg/kg; remark: listed apart in the source
# [38] = in vivo; settings: beagle, dog, po, 5 mg/kg; remark: listed apart in the source
# Description: Half life in Beagle dog at 5 mg/kg, po by LC-MS/MS analysis
# [39] = in vivo; settings: ICR, mouse, iv, 5 mg/kg; remark: listed apart in the source
# Description: MRT in ICR mouse at 5 mg/kg, iv by LC-MS/MS analysis
# [40] = in vivo; settings: Sprague-Dawley, rat, po, 10 mg/kg; remark: listed apart in the source
# Description: Half life in Sprague-Dawley rat at 10 mg/kg, po by LC-MS/MS analysis
# [41] = in vivo; settings: ICR, mouse, po, 10 mg/kg; remark: listed apart in the source
# [42] = in vivo; settings: beagle, dog, po, 5 mg/kg; remark: listed apart in the source
# Description: AUC (0 to t) in Beagle dog at 5 mg/kg, po by LC-MS/MS analysis
# [43] = in vivo; settings: Sprague-Dawley, rat, iv, 5 mg/kg; remark: listed apart in the source
# Description: MRT in Sprague-Dawley rat at 5 mg/kg, iv by LC-MS/MS analysis
# [44] = organism: Mus musculus; settings: in vivo, po, 10 mg/kg
# [45] = in vitro; settings: human, plasma; remark: listed apart in the source
# Description: Metabolic stability in human plasma assessed as parent compound remaining after 120 mins
# [46] = in vivo; settings: Sprague-Dawley, rat, po, 10 mg/kg; remark: listed apart in the source
# [47] = in vivo; settings: Sprague-Dawley, rat, po, 10 mg/kg; remark: listed apart in the source
# [48] = in vivo; settings: ICR, mouse, po, 10 mg/kg; remark: listed apart in the source
# Description: MRT in ICR mouse at 10 mg/kg, po by LC-MS/MS analysis
# [49] = in vivo; settings: beagle, dog, iv, 3 mg/kg; remark: listed apart in the source
# Description: MRT in Beagle dog at 3 mg/kg, iv by LC-MS/MS analysis
# [50] = in vivo; settings: beagle, dog, po, 5 mg/kg; remark: listed apart in the source
# Description: MRT in Beagle dog at 5 mg/kg, po by LC-MS/MS analysis
# [51] = in vitro; settings: human, Caco-2; remark: listed apart in the source
# [52] = in vivo; settings: ICR, mouse, iv, 5 mg/kg; remark: listed apart in the source
# Description: AUC (0 to t) in ICR mouse at 5 mg/kg, iv by LC-MS/MS analysis
# [53] = target: CYP2C9 (Homo sapiens, UniProt P11712); test: in vitro
# Sequence of CYP2C9 (P11712 whole entry): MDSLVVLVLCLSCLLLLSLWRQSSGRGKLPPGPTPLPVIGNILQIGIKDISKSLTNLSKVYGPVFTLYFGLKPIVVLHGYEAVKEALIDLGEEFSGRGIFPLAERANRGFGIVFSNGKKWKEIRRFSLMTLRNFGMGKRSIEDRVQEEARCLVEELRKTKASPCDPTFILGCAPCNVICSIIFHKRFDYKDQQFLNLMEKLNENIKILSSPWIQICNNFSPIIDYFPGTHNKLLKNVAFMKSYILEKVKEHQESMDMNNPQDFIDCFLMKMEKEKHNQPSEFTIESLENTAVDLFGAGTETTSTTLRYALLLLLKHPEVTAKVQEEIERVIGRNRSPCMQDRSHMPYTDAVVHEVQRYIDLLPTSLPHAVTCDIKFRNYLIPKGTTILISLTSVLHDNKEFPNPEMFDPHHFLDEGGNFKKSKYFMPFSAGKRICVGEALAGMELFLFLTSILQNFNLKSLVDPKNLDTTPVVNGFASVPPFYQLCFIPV
# Description: Inhibition of CYP2C9 (unknown origin) assessed as residual activity at 10 uM relative to control
# Sequence of Tyrosine-protein kinase JAK1 (P23458 whole entry): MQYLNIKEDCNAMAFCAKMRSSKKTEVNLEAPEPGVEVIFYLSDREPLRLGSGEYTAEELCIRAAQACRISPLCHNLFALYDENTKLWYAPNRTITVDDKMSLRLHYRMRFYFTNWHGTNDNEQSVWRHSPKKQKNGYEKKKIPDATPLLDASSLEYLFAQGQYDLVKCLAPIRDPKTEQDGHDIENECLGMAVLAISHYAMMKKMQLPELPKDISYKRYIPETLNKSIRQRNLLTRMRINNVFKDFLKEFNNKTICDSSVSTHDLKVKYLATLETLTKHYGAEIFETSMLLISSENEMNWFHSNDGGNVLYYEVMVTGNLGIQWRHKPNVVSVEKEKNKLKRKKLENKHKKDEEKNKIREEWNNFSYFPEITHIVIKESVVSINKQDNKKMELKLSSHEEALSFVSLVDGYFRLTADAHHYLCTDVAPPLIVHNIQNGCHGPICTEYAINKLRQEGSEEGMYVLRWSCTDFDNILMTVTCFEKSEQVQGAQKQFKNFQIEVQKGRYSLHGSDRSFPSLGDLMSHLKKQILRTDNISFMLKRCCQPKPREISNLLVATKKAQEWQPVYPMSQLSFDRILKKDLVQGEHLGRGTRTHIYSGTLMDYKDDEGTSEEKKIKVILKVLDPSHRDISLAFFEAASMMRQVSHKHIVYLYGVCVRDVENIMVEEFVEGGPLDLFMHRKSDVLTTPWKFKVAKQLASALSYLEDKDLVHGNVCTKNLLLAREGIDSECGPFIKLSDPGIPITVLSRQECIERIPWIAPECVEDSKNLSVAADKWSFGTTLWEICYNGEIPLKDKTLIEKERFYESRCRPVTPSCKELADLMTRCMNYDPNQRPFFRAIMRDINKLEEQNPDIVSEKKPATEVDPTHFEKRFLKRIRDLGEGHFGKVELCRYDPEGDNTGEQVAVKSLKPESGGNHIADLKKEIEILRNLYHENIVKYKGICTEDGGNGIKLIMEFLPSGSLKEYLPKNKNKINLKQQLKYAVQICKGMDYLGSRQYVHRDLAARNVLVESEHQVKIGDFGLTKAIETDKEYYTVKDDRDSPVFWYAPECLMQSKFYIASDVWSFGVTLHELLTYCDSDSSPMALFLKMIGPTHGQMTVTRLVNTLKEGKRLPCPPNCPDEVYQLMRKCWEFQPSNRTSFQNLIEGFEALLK
# T1 sequence (O60674 whole entry): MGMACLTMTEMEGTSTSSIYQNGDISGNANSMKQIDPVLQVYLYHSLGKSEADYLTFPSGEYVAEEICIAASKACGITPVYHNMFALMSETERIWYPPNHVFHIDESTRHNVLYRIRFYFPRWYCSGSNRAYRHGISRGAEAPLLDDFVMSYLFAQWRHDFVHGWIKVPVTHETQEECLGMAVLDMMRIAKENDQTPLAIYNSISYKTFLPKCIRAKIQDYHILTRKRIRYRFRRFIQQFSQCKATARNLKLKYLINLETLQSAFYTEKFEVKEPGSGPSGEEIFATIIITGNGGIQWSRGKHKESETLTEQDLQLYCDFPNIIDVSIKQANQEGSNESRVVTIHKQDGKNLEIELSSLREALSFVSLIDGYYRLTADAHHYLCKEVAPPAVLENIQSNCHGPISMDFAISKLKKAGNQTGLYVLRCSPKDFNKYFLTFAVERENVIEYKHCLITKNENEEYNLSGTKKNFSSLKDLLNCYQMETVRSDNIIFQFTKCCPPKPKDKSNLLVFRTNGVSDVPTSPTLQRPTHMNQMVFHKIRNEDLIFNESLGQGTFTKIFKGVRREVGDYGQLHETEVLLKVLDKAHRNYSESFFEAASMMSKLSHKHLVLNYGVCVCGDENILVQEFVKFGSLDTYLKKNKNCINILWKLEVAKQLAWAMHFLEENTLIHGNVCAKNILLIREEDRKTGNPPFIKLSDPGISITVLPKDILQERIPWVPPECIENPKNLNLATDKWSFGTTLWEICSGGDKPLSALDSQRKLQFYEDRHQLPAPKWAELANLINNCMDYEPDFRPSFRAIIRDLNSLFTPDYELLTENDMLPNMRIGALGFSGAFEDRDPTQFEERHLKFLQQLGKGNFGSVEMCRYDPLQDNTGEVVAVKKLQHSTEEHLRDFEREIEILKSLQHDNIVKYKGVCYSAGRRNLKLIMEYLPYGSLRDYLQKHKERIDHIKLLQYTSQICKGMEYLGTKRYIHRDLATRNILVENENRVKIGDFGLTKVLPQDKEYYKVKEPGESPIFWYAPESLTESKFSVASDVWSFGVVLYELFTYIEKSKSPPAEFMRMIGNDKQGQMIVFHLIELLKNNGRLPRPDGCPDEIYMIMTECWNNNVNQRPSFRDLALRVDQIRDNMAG
# Sequence of CYP2C19 (P33261 whole entry): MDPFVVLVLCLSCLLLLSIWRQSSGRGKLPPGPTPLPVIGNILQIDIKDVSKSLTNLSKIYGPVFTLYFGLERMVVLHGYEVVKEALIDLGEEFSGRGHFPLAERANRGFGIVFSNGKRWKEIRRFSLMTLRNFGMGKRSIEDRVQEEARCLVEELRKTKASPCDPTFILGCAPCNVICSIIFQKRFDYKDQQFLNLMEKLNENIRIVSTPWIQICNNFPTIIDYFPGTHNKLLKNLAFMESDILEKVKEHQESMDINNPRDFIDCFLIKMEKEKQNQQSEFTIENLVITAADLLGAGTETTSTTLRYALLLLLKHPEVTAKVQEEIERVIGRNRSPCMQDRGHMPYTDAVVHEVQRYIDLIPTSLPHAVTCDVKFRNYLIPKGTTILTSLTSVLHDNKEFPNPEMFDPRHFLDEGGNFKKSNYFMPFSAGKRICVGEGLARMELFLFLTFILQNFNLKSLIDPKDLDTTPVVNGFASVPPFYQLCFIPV
# Sequence of CYP2D6 (P10635 whole entry): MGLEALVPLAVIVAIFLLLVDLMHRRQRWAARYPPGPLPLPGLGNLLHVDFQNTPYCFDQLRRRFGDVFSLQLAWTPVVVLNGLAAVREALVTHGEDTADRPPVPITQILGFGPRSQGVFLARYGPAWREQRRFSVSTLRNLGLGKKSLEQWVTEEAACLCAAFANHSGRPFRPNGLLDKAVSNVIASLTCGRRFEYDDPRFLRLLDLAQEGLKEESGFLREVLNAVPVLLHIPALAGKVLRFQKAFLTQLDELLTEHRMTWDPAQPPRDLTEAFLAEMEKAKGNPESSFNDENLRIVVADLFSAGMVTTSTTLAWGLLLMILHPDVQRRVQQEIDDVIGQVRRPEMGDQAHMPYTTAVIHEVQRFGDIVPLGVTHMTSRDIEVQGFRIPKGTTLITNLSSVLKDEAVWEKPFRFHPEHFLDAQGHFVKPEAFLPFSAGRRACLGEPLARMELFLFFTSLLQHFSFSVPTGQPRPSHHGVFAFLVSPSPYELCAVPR
# Sequence of Voltage-gated inwardly rectifying potassium channel KCNH2 (Q12809 whole entry): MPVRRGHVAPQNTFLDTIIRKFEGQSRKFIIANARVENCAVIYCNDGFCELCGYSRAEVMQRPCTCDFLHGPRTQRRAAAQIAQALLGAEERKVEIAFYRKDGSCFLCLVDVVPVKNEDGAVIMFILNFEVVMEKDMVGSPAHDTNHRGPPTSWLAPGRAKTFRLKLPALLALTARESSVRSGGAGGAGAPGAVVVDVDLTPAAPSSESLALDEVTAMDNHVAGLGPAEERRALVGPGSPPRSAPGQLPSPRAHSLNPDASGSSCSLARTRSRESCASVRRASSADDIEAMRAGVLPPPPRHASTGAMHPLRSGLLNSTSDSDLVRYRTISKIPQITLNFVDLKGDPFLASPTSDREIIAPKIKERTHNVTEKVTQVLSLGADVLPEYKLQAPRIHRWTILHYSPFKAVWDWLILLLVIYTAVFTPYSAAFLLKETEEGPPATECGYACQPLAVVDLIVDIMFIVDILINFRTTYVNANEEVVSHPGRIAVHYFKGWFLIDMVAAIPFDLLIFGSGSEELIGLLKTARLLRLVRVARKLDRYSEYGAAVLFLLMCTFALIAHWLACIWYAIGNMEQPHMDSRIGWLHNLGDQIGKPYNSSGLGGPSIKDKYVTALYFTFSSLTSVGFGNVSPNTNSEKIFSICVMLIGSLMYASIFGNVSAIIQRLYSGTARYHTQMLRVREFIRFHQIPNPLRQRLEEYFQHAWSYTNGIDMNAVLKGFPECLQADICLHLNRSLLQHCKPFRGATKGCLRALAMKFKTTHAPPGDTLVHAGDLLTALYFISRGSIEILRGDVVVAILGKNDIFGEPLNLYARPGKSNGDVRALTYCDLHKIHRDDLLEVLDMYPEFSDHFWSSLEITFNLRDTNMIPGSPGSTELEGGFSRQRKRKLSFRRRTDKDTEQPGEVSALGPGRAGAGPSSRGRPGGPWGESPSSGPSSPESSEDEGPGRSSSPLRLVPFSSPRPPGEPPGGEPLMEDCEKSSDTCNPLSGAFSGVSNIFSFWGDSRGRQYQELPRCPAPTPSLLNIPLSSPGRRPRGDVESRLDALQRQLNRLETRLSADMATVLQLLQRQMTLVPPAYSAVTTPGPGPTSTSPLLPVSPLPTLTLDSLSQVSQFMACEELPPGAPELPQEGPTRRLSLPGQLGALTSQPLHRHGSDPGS
structure (smiles),measurement,setting,value
CN(c1ncnc2[nH]ccc12)[C@@H]1CCN(S(=O)(=O)c2ccc3ccccc3c2)C1,IC50,[1],690 nM
same,IC50,[2],13 nM
CN(c1ncnc2[nH]ccc12)[C@@H]1CCN(C(=O)CN=[N+]=[N-])C1,IC50,[1],170 nM
same,IC50,[2],10 nM
CN(c1ncnc2[nH]ccc12)[C@@H]1CCN(S(=O)(=O)c2cn(C)cn2)C1,IC50,[1],19000 nM
same,IC50,[2],650 nM
CN(c1ncnc2[nH]ccc12)[C@@H]1CCN(S(=O)(=O)c2ccccc2)C1,IC50,[1],430 nM
same,IC50,[2],28 nM
CC(C)CC(=O)N1CC[C@@H](N(C)c2ncnc3[nH]ccc23)C1,IC50,[1],3900 nM
same,IC50,[2],70 nM
Cc1cccc(S(=O)(=O)N2CC[C@@H](N(C)c3ncnc4[nH]ccc34)C2)c1,IC50,[1],730 nM
same,IC50,[2],29 nM
N#Cc1cccc(S(=O)(=O)N2CC[C@@H](Nc3ncnc4[nH]ccc34)C2)c1,IC50,[1],1900 nM
same,IC50,[2],510 nM
CN(c1ncnc2[nH]ccc12)[C@@H]1CCN(S(=O)(=O)c2cccc([N+](=O)[O-])c2)C1,remaining at 0.5 h,[3],10.4%
same,remaining at 0.5 h,[4],13.4%
same,IC50,[1],18 nM
same,remaining at 0.5 h,[5],3.1%
same,IC50,[2],1.9 nM
same,remaining at 0.5 h,[6],2.5%
CN(c1ncnc2[nH]ccc12)[C@@H]1CCN(S(=O)(=O)c2ccc(C(F)(F)F)cc2)C1,remaining at 0.5 h,[3],14.2%
same,remaining at 0.5 h,[4],21%
same,IC50,[1],3400 nM
same,remaining at 0.5 h,[5],8.4%
same,IC50,[2],9.5 nM
same,remaining at 0.5 h,[6],11.4%
CN(c1ncnc2[nH]ccc12)[C@@H]1CCN(S(=O)(=O)c2ccccc2F)C1,IC50,[1],130 nM
same,IC50,[2],25 nM
CC(C)COC(=O)N1CC[C@@H](N(C)c2ncnc3[nH]ccc23)C1,IC50,[1],4300 nM
same,IC50,[2],110 nM
N#Cc1cccc(S(=O)(=O)N2CC[C@@H](N(CC3CC3)c3ncnc4[nH]ccc34)C2)c1,IC50,[1],1400 nM
same,IC50,[2],17 nM
CCN(c1ncnc2[nH]ccc12)[C@@H]1CCN(C(=O)CC#N)C1,IC50,[1],1300 nM
same,IC50,[2],62 nM
CN(c1ncnc2[nH]ccc12)[C@@H]1CCN(S(=O)(=O)c2cccc(F)c2)C1,IC50,[1],53 nM
same,IC50,[2],14 nM
COc1ccc(S(=O)(=O)N2CC[C@@H](N(C)c3ncnc4[nH]ccc34)C2)cc1,IC50,[1],1500 nM
same,IC50,[2],26 nM
CCS(=O)(=O)N1CC[C@@H](N(C)c2ncnc3[nH]ccc23)C1,IC50,[1],2400 nM
same,IC50,[2],79 nM
CN(c1ncnc2[nH]ccc12)[C@@H]1CCN(C(=O)Nc2ccccc2)C1,IC50,[1],550 nM
same,IC50,[2],22 nM
CN(c1ncnc2[nH]ccc12)[C@@H]1CCN(C(=O)CC#N)C1,remaining at 2 h,[7],> 100%
same,activity at 10 µM,[8],89.3%
same,Cmax,[9],1900 ng/mL
same,activity at 10 µM,[10],> 100%
same,remaining at 0.5 h,[3],92.8%
same,MRT,[11],2.9 h
same,AUC(0-t),[12],2100 ng·h/mL
same,AUC(0-t),[13],1900 ng·h/mL
same,activity at 10 µM,[14],91.8%
same,IC50,[15],93000 nM
same,Tmax,[16],1.1 h
same,inhibition at 10 µM,[17],> 90%
same,Papp A→B,[18],3.8 ×10⁻⁶ cm/s
same,AUC(0-inf),[19],6500 ng·h/mL
same,AUC(0-inf),[20],680 ng·h/mL
same,half-life,[21],2.1 h
same,AUC(0-inf),[22],4300 ng·h/mL
same,F,[23],180%
same,remaining at 0.5 h,[4],97.6%
same,AUC(0-inf),[24],950 ng·h/mL
same,activity at 10 µM,[25],98.2%
same,remaining at 0.5 h,[5],> 100%
same,AUC(0-inf),[26],2200 ng·h/mL
same,half-life,[27],0.9 h
same,Cmax,[28],1900 ng/mL
same,fraction unbound,[29],0.853
same,AUC(0-t),[30],930 ng·h/mL
same,remaining at 0.5 h,[31],> 100%
same,fraction unbound,[32],0.823
same,half-life,[33],1.6 h
same,remaining at 0.5 h,[34],96.3%
same,half-life,[35],0.7 h
same,Tmax,[36],0.3 h
same,Cmax,[37],1000 ng/mL
same,half-life,[38],1.7 h
same,MRT,[39],1.4 h
same,half-life,[40],2.1 h
same,AUC(0-inf),[41],2100 ng·h/mL
same,AUC(0-t),[42],6400 ng·h/mL
same,MRT,[43],0.9 h
same,F,[44],190%
same,remaining at 2 h,[45],99.8%
same,Tmax,[46],0.3 h
same,AUC(0-t),[47],4100 ng·h/mL
same,MRT,[48],3.1 h
same,MRT,[49],2.4 h
same,MRT,[50],3.1 h
same,Papp B→A,[51],7.7 ×10⁻⁶ cm/s
same,AUC(0-t),[52],510 ng·h/mL
same,remaining at 0.5 h,[6],92.8%
same,activity at 10 µM,[53],> 100%
CCCCN1CC[C@@H](N(C)c2ncnc3[nH]ccc23)C1,IC50,[1],27000 nM
same,IC50,[2],740 nM
